Laboratory results: the supplement of paper PMC4862054

Key:
HCC1143 [1] = experiment: normalised response (% of control), CellTiter-Glo; higher = more viable cells (100 = DMSO, 0 = benzethonium chloride kill control); details: incubation time: 72 h
Outline: (§1)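 Values are normalised signals, each belonging to one concentration of the series. Breast cancer cells (20 µl suspension) were seeded into 384-well plates with compound at 5 concentrations in 10-fold steps over a compound-specific 10,000-fold range and incubated 72 h. Readouts were CellTox Green fluorescence (485/520 nm), then CellTiter-Glo luminescence after 10 min at room temperature, with each plate set to 0.1 % DMSO as 100 and a positive kill control as 0.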

HCC1599 [2] = experiment: as above; details: incubation time: 72 h
Outline: as §1

HDQ-P1 [3] = experiment: as above; details: incubation time: 72 h
Outline: as §1

MCF-10A [4] = experiment: as above; details: incubation time: 72 h
Outline: as §1

MDA-MB-231 [5] = experiment: as above; details: incubation time: 72 h
Outline: as §1

MDA-MB-468 [6] = experiment: as above; details: incubation time: 72 h
Outline: as §1

SK-BR-3 [7] = experiment: as above; details: incubation time: 72 h
Outline: as §1

BT-474 [8] = details: 72 h
Outline: (§2)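 EC50 was fitted from dose-response curves and censored at the highest concentration tested. To build those curves, breast cancer cell lines (20 µl suspension) were seeded into 384-well plates containing compound at 5 concentrations in 10-fold steps over a compound-specific 10,000-fold range and incubated for 72 h. Readouts were CellTox Green fluorescence (485/520 nm) for cell death and then CellTiter-Glo luminescence for viability, with each plate normalised to 0.1 % DMSO and a positive kill control.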

Hs578T [9] = details: 72 h
Procedure: (§3)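 Drug sensitivity and resistance testing (DSRT) of breast cancer cell lines in 384-well plates, 5 concentrations in 10-fold dilutions over a compound-specific 10,000-fold range. After 72 h, cytotoxicity was read by CellTox Green fluorescence and viability by CellTiter-Glo luminescence (multiplexed), normalised to DMSO and benzethonium chloride controls. EC50 is the inflection point of the fitted dose-response curve (bottom asymptote free, so it can be relative for partial curves) and is censored at the highest tested concentration. Rows with DSS 0 (no meaningful response) were excluded.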

BT-549 = details: 72 h
Outline: as §2

CAL-148 = details: 72 h
Outline: as §2

CAL-51 = details: 72 h
Outline: as §2

CAL-85-1 [10] = details: 72 h
Outline: as §2

DU-4475 [11] = details: 72 h
Outline: as §2

HCC1143 [12] = details: 72 h
Outline: as §2

HCC1937 = details: 72 h
Outline: as §2

HDQ-P1 [13] = details: 72 h
Outline: as §2

Hs578T [14] = details: 72 h; remark: listed apart in the source
Outline: as §2

MCF-10A [15] = details: 72 h
Outline: as §2

MDA-MB-231 [16] = details: 72 h
Outline: as §2

MDA-MB-436 = details: 72 h
Outline: as §2

MDA-MB-453 [17] = details: 72 h
Outline: as §2

MFM-223 [18] = details: 72 h
Outline: as §2

SK-BR-3 [19] = details: 72 h
Outline: as §2

CAL-85-1 [20] = details: 72 h; remark: listed apart in the source
Outline: (§4)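 Each 384-well plate was pre-loaded with compound dissolved in 5 µl medium, received breast cancer cells in 20 µl suspension, and was incubated 72 h. A 2.5 µl addition of CellTiter-Blue for 2 h at 37 °C was followed by a fluorescence read at 560/590 nm. Data were normalised per plate to vehicle and a positive kill control and checked by Z'-factor. EC50 was fitted from the percent-inhibition dose-response curve, censored at the highest concentration, excluding rows with a drug sensitivity score of zero.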

DU-4475 [21] = details: 72 h; remark: listed apart in the source
Outline: as §4

HDQ-P1 [22] = details: 72 h; remark: listed apart in the source
Outline: as §4

MDA-MB-453 [23] = details: 72 h; remark: listed apart in the source
Outline: as §4

BT-474 [24] = details: 72 h; remark: listed apart in the source
Outline: as §4

HCC1143 [25] = details: 72 h; remark: listed apart in the source
Outline: as §4

HCC1599 [26] = details: 72 h
Outline: as §4

Hs578T [27] = details: 72 h; remark: listed apart in the source
Outline: as §4

MDA-MB-231 [28] = details: 72 h; remark: listed apart in the source
Outline: as §4

MDA-MB-468 [29] = details: 72 h
Outline: as §4

MFM-223 [30] = details: 72 h; remark: listed apart in the source
Outline: as §4

CAL-85-1 [31] = details: 72 h; remark: listed apart in the source
Procedure: as §3

`OC[C@H]1O[C@@H](n2cnc3c2N=CNC[C@H]3O)C[C@@H]1O` [Pentostatin] (1000 nM) gave a normalised response (HCC1143 [1]) of 104%, a normalised response (HCC1599 [2]) of 103% and a normalised response (HDQ-P1 [3]) of 94.1%. It also gave a normalised response (MCF-10A [4]) of 105%, a normalised response (MDA-MB-231 [5]) of 108% and a normalised response (MDA-MB-468 [6]) of 99.4%. The normalised response (SK-BR-3 [7]) was 104%.
Compound `Cc1c2oc3c(C)ccc(C(=O)N[C@@H]4C(=O)N[C@H](C(C)C)C(=O)N5CCC[C@H]5C(=O)N(C)CC(=O)N(C)[C@@H](C(C)C)C(=O)O[C@@H]4C)c3nc-2c(C(=O)N[C@@H]2C(=O)N[C@H](C(C)C)C(=O)N3CCC[C@H]3C(=O)N(C)CC(=O)N(C)[C@@H](C(C)C)C(=O)O[C@@H]2C)c(N)c1=O` [Dactinomycin] (100 nM) has a normalised response (HCC1143 [1]) of 8.6%, a normalised response (HCC1599 [2]) of 8.92% and a normalised response (HDQ-P1 [3]) of 21.8%. The normalised response (MCF-10A [4]) was 5.33%, the normalised response (MDA-MB-231 [5]) was 2.57% and the normalised response (MDA-MB-468 [6]) was 3.22%. It also gave a normalised response (SK-BR-3 [7]) of 11.3%.
In the case of `Clc1ccc(C(c2ccccc2Cl)C(Cl)Cl)cc1` (configuration not stated) [Mitotane] (1000 nM), the normalised response (HCC1143 [1]) is reported as 94.1%, the normalised response (HCC1599 [2]) is reported as 121% and the normalised response (HDQ-P1 [3]) is reported as 101%. For the same compound, the normalised response (MCF-10A [4]) was 91.7%, the normalised response (MDA-MB-231 [5]) was 101% and the normalised response (MDA-MB-468 [6]) was 98.7%. The normalised response (SK-BR-3 [7]) was 94.2%.
With `C=CC[C@@H]1/C=C(\C)C[C@H](C)C[C@H](OC)[C@H]2O[C@@](O)(C(=O)C(=O)N3CCCC[C@H]3C(=O)O[C@H](/C(C)=C/[C@@H]3CC[C@@H](O)[C@H](OC)C3)[C@H](C)[C@@H](O)CC1=O)[C@H](C)C[C@@H]2OC` [Tacrolimus] the “EC50, CellTiter-Glo” value (BT-474 [8]) was greater than 10000 nM.
With `CS(=O)(=O)c1ccc(C(=O)Nc2ccc(Cl)c(-c3ccccn3)c2)c(Cl)c1` [Vismodegib] (1000 nM) the normalised response (HCC1143 [1]) was 89.2%, the normalised response (HCC1599 [2]) was 118% and the normalised response (HDQ-P1 [3]) was 98.4%. It also gave a normalised response (MCF-10A [4]) of 94.9%, a normalised response (MDA-MB-231 [5]) of 95.9% and a normalised response (MDA-MB-468 [6]) of 94.9%. The normalised response (SK-BR-3 [7]) was 86.5%.
For `Cc1ccc(F)c(NC(=O)Nc2ccc(-c3cccc4[nH]nc(N)c34)cc2)c1` [Linifanib] (100 nM), the normalised response (HCC1143 [1]) was 105%, the normalised response (HCC1599 [2]) was 104% and the normalised response (HDQ-P1 [3]) was 103%. It also gave a normalised response (MCF-10A [4]) of 105%, a normalised response (MDA-MB-231 [5]) of 111% and a normalised response (MDA-MB-468 [6]) of 104%. It also gave a normalised response (SK-BR-3 [7]) of 112%.
For `CS(=O)(=O)c1ccc(C(=O)Nc2ccc(Cl)c(-c3ccccn3)c2)c(Cl)c1` [Vismodegib], the “EC50, CellTox Green” value (Hs578T [9]) was greater than 10000 nM.
`CN1CC[C@H](c2c(O)cc(O)c3c(=O)cc(-c4ccccc4Cl)oc23)[C@H](O)C1` [Alvocidib] (1000 nM) gave a normalised response (HCC1143 [1]) of 17.1%, a normalised response (HCC1599 [2]) of 17.2% and a normalised response (HDQ-P1 [3]) of 19.8%. It also gave a normalised response (MCF-10A [4]) of 11.2%, a normalised response (MDA-MB-231 [5]) of 3.01% and a normalised response (MDA-MB-468 [6]) of 8.32%. For the same compound, the normalised response (SK-BR-3 [7]) was 2.44%.
`COc1cccc2cc(-c3nc([C@H]4CC[C@H](C(=O)O)CC4)n4ncnc(N)c34)[nH]c12` [OSI-027] was tested, and the “EC50, CellTiter-Glo” value (BT-474 [8]) was 2920 nM, the “EC50, CellTiter-Glo” value (BT-549) was 2590 nM and the “EC50, CellTiter-Glo” value (CAL-148) was 7160 nM. For the same compound, the “EC50, CellTiter-Glo” value (CAL-51) was 2220 nM, the “EC50, CellTiter-Glo” value (CAL-85-1 [10]) was 3800 nM and the “EC50, CellTiter-Glo” value (DU-4475 [11]) was 1480 nM. For the same compound, the “EC50, CellTiter-Glo” value (HCC1143 [12]) was 1880 nM, the “EC50, CellTiter-Glo” value (HCC1937) was 8710 nM and the “EC50, CellTiter-Glo” value (HDQ-P1 [13]) was 938 nM. The “EC50, CellTiter-Glo” value (Hs578T [14]) was 6720 nM, the “EC50, CellTiter-Glo” value (MCF-10A [15]) was 4810 nM and the “EC50, CellTiter-Glo” value (MDA-MB-231 [16]) was 8210 nM. The “EC50, CellTiter-Glo” value (MDA-MB-436) was 8290 nM, the “EC50, CellTiter-Glo” value (MDA-MB-453 [17]) was 2920 nM and the “EC50, CellTiter-Glo” value (MFM-223 [18]) was 3170 nM. The “EC50, CellTiter-Glo” value (SK-BR-3 [19]) was 594 nM, the “EC50, CellTiter-Blue viability” value (CAL-85-1 [20]) was 1180 nM and the “EC50, CellTiter-Blue viability” value (DU-4475 [21]) was 4630 nM. The “EC50, CellTiter-Blue viability” value (HDQ-P1 [22]) was 255 nM, the “EC50, CellTiter-Blue viability” value (MDA-MB-453 [23]) was 460 nM and the “EC50, CellTiter-Blue viability” value (BT-474 [24]) was 740 nM. For the same compound, the “EC50, CellTiter-Blue viability” value (HCC1143 [25]) was 1150 nM, the “EC50, CellTiter-Blue viability” value (HCC1599 [26]) was 1210 nM and the “EC50, CellTiter-Blue viability” value (Hs578T [27]) was 1280 nM. For the same compound, the “EC50, CellTiter-Blue viability” value (MDA-MB-231 [28]) was 1670 nM, the “EC50, CellTiter-Blue viability” value (MDA-MB-468 [29]) was 1960 nM and the “EC50, CellTiter-Blue viability” value (MFM-223 [30]) was 275 nM. For the same compound, the “EC50, CellTox Green” value (CAL-85-1 [31]) was greater than 10000 nM.
